Here are results for three compounds from article PMC10528299, “Targeting FAK/PYK2 with SJP1602 for Anti-Tumor Activity in Triple-Negative Breast Cancer” (Current Issues in Molecular Biology, 2023).

Common to all, as to experiment: Eurofins kinase profiling
What all share (format): biochemical

One assay addresses T1, LKB1(h) (Homo sapiens, UniProt Q15831).
T1 construct: purchased Eurofins KinaseProfiler
T1 sequence (Q15831 1-433): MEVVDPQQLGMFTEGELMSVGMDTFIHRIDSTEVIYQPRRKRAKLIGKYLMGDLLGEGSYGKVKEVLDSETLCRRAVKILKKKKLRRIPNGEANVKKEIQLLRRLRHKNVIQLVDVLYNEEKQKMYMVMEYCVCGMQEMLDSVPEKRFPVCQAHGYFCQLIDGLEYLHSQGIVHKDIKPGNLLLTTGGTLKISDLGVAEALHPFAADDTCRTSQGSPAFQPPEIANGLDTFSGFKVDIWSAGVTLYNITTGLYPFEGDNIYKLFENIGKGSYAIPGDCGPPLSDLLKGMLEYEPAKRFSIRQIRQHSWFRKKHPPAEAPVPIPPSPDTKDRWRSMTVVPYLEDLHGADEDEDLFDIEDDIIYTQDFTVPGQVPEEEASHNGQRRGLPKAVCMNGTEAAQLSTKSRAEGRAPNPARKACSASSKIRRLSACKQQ
T1 sequence (Q7RTN6 1-431 partner): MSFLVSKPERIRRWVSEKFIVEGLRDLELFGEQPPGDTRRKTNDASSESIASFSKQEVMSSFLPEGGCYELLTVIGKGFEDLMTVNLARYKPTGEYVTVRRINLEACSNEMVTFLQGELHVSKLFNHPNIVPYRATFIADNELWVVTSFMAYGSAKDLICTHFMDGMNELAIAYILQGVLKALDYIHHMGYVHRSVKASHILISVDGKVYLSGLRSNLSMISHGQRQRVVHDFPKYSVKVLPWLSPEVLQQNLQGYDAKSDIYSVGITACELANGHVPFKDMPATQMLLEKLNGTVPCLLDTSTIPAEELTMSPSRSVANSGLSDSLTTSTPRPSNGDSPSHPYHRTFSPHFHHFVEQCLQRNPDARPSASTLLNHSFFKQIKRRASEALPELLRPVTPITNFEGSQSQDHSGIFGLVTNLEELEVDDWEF
T1 sequence (Q9Y376 1-341 partner): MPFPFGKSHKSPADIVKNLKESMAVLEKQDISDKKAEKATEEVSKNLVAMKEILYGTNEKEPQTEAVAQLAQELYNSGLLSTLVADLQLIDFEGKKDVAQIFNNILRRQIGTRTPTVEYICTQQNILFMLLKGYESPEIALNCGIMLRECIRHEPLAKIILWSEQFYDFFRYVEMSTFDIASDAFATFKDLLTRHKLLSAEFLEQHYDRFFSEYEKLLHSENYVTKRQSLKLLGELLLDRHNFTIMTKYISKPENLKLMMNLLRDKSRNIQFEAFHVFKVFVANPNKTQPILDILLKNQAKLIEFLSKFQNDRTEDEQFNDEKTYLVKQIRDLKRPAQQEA
As to conditions: read-out: residual kinase activity LKB1(h). The procedure: (§1) The kinase profiling analysis was performed at Eurofins (Poitiers, France). A total of 110 kinase assays were carried out according to Eurofins’ standard protocols. For protein kinase assays, the kinase activity was measured using Eurofins’ KinaseProfiler radiometric assay. In this assay, a panel of kinases was incubated with the test compound SJP1602 at a concentration of 1 µM, and the kinase activity was determined using radiolabeled phosphate as a substrate. Lipid and atypical kinase assays were conducted using Eurofins’ homogeneous time-resolved fluorescence assay. The same panel of kinases was incubated with SJP1602 at a concentration of 1 µM, and the activity of lipid and atypical kinases was measured using this assay.

The next assay deals with T2, ATM(h) (Homo sapiens, UniProt Q13315).
T2 construct: purchased Eurofins KinaseProfiler
T2 sequence (Q13315 whole entry): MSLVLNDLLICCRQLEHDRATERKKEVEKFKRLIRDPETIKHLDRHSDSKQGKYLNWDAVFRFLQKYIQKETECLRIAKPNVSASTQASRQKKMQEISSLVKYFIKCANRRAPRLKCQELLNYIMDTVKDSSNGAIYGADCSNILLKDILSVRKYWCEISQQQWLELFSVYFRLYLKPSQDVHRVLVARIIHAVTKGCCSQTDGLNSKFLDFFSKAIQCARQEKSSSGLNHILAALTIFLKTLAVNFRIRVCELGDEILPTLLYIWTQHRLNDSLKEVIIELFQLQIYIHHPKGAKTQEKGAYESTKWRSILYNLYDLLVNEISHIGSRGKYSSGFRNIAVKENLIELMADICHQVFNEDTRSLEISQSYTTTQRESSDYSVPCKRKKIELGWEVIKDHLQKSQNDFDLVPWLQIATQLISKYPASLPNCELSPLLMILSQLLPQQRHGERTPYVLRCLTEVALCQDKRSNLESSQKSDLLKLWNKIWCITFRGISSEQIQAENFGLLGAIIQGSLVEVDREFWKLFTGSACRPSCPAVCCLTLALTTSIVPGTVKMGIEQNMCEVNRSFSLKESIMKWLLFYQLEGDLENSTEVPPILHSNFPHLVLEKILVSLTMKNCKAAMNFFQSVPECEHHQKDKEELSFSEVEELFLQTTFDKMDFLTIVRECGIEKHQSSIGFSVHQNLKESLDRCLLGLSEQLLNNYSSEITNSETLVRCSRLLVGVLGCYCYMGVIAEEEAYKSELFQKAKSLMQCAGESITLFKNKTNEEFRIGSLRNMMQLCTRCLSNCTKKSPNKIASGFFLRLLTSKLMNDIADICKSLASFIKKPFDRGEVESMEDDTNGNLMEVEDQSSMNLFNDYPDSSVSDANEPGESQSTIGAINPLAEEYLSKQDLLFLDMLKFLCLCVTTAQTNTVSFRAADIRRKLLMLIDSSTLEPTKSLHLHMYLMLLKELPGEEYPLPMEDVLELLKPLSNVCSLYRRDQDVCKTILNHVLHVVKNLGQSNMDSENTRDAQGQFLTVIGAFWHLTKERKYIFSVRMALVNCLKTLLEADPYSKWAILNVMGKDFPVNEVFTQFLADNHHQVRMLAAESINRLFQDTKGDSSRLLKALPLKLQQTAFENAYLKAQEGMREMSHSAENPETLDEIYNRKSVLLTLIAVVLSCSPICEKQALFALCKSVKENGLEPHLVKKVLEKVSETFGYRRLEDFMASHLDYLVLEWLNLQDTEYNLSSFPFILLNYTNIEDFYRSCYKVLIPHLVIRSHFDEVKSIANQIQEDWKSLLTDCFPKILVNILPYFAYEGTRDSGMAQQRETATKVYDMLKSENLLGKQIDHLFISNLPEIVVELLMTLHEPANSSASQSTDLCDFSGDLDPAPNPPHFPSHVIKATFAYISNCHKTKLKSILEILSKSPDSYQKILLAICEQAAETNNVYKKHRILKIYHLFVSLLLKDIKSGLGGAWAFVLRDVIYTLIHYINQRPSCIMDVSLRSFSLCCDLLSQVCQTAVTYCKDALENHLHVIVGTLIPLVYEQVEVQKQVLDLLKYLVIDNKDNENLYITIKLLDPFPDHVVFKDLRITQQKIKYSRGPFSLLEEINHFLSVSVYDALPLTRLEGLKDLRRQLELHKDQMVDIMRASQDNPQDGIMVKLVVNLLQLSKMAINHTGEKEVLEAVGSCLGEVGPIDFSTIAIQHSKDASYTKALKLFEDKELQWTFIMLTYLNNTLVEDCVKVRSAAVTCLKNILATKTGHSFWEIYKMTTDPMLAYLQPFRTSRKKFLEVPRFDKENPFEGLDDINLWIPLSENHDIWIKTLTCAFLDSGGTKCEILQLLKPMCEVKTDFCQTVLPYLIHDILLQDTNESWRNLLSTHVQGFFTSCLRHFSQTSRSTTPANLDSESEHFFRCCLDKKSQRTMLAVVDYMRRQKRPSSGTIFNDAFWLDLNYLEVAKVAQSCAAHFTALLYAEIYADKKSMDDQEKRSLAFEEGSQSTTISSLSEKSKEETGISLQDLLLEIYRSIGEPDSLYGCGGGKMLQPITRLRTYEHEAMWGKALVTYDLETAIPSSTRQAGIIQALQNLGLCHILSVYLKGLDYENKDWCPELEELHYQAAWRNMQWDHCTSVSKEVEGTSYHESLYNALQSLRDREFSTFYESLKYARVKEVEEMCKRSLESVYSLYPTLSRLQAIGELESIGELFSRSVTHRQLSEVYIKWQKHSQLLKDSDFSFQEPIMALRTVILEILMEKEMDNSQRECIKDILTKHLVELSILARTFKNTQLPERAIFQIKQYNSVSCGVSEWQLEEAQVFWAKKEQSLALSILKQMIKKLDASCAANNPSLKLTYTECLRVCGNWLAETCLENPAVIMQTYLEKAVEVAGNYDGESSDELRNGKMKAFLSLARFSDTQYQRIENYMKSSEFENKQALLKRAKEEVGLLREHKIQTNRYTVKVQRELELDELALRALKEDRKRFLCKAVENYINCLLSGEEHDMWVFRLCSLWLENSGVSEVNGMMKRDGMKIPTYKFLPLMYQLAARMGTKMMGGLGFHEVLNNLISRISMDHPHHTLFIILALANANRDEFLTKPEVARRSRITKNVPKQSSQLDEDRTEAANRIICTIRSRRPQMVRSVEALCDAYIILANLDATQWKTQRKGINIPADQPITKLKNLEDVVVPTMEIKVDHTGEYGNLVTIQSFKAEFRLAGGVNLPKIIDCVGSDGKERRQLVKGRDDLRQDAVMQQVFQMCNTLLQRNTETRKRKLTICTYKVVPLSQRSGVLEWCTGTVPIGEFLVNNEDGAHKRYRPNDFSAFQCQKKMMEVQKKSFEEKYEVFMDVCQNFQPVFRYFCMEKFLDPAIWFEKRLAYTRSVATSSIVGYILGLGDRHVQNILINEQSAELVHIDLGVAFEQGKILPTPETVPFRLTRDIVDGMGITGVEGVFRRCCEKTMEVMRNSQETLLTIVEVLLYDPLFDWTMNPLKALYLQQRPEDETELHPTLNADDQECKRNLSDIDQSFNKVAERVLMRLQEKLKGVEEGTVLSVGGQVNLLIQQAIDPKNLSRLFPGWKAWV
As to conditions: read-out: residual kinase activity ATM(h). The procedure: as §1

The next assay has as its target T3, CDK1/cyclinB(h) (Homo sapiens, UniProt P06493).
T3 construct: purchased Eurofins KinaseProfiler
As to conditions: read-out: residual kinase activity CDK1/cyclinB(h). Here is the method: as §1

In the next assay the target is T4, MST3(h) (Homo sapiens, UniProt Q9Y6E0).
T4 construct: purchased Eurofins KinaseProfiler
T4 sequence (Q9Y6E0 whole entry): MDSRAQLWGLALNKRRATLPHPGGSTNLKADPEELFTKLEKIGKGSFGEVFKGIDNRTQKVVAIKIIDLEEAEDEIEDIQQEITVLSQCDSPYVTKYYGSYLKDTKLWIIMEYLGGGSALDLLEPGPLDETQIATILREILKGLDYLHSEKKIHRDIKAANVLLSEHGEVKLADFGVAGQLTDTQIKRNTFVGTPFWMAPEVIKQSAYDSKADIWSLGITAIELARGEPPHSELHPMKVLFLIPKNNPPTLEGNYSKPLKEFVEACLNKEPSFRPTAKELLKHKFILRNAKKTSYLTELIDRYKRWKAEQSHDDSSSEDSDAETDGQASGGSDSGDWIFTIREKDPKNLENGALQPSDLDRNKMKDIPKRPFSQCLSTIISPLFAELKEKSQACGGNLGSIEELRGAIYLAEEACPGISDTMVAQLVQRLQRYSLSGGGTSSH
As to conditions: read-out: residual kinase activity MST3(h). Here is the method: as §1

The target of a further assay is T5, Yes(h) (Homo sapiens, UniProt P07947).
T5 construct: purchased Eurofins KinaseProfiler
As to conditions: read-out: residual kinase activity Yes(h). The procedure:
as §1

A further assay concerns the target T6, ZAP-70(h) (Homo sapiens, UniProt P43403).
T6 construct: purchased Eurofins KinaseProfiler
T6 sequence (P43403 1-619): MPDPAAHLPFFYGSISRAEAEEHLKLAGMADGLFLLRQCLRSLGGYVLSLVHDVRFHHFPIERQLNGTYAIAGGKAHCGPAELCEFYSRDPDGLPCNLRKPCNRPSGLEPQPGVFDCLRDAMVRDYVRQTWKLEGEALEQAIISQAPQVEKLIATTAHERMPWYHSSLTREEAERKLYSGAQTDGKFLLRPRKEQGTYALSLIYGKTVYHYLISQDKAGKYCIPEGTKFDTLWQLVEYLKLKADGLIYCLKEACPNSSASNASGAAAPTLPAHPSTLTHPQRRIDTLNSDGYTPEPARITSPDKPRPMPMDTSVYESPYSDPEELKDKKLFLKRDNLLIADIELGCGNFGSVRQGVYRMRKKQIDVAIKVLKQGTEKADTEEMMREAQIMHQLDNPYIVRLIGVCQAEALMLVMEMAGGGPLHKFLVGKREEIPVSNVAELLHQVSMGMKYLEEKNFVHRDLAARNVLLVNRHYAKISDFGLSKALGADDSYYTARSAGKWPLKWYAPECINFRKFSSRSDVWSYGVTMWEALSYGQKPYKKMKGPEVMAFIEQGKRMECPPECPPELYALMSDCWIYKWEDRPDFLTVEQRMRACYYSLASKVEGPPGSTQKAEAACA
The following applies: read-out: residual kinase activity ZAP-70(h). Here is the method:
as §1

The next assay has as its target T7, EphA7(h) (Homo sapiens, UniProt Q15375).
T7 construct: purchased Eurofins KinaseProfiler
As to conditions: read-out: residual kinase activity EphA7(h). Here is the method: as §1

The target in another assay is T8, PKCα(h) (Homo sapiens, UniProt P17252).
T8 construct: purchased Eurofins KinaseProfiler
As to conditions: read-out: residual kinase activity PKCα(h). Here is the method:
as §1

T7 sequence (Q15375 28-998): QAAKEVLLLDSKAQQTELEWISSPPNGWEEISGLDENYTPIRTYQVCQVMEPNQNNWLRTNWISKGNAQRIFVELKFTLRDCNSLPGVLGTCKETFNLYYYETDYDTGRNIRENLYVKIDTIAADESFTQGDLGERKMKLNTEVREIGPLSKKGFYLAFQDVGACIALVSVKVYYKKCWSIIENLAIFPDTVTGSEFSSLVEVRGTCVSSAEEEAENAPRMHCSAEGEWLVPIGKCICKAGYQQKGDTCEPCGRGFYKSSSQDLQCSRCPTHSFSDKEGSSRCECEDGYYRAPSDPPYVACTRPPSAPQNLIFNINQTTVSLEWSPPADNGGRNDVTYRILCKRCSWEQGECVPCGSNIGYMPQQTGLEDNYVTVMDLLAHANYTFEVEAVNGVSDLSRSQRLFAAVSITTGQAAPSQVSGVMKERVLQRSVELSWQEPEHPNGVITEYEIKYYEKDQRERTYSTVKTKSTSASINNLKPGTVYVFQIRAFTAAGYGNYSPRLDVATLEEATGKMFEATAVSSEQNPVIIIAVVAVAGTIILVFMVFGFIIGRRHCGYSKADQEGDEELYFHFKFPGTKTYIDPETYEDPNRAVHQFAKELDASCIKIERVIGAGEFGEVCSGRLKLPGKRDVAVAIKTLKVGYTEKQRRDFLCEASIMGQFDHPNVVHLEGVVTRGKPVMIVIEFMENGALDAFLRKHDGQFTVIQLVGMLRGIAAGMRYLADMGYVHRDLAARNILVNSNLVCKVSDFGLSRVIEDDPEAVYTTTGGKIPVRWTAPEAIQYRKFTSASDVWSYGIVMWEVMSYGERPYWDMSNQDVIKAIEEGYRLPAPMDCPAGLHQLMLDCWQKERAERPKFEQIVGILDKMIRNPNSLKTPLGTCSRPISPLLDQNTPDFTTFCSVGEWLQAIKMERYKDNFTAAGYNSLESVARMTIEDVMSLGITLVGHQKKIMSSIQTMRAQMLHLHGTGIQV

Regarding `CONC(=O)c1ccccc1Nc1cc(Nc2cc(C)nn2C(C)C)ncc1Cl` [GSK2256098], the remaining activity at 1 µM turned out to be 98% on LKB1(h); 94% on ATM(h); 97% at CDK1/cyclinB(h); 102% on MST3(h); 99% on Yes(h); 105% on ZAP-70(h). For the same compound, the remaining activity at 1 µM at EphA7(h) amounted to 99%; on PKCα(h), 95%.

As to `CNC(=O)c1cccc(C)c1Nc1nc(Nc2ccc(N3CCN(C4C5CC6CC4CC(O)(C6)C5)CC3)cc2OC)ncc1C(F)(F)F` (stereo not drawn) [SJP1602, 2-((2-((4-(4-((2s,5r)-5-hydroxyadamantan-2-yl)piperazin-1-yl)-2-methoxyphenyl)amino)-5-(trifluoromethyl)pyrimidin-4-yl)amino)-N,3-dimethylbenzamide], the remaining activity at 1 µM on LKB1(h) worked out at 96%; at ATM(h) it was 98%; at CDK1/cyclinB(h), 88%; at MST3(h), 95%; at Yes(h), 84%; at ZAP-70(h), 124%. The results for the remaining activity at 1 µM at EphA7(h) and at PKCα(h) were 103% and 100%, respectively.

Turning to `CNC(=O)c1ccc(Nc2ncc(C(F)(F)F)c(NCc3nccnc3N(C)S(C)(=O)=O)n2)cc1` [VS-6063, Defactinib], the remaining activity at 1 µM on LKB1(h) was determined as 89%; at ATM(h), 63%; on CDK1/cyclinB(h), 14%; at MST3(h), 33%; at Yes(h), 56%; on ZAP-70(h), 139%. Further, the remaining activity at 1 µM stood at 41% on EphA7(h) and 92% at PKCα(h).
